Source: PubChem BioAssay AID588774 (The Scripps Research Institute Molecular Screening Center, 2011)
Active and inactive are the calls of the source.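 The calls were made as follows: active = target enzyme inhibited at least 50% at a set dose, and selective over every off-target enzyme by a set factor; inactive = weaker inhibition or too little selectivity.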

Legend:
[1] = pPAFAH inhibition and serine hydrolase selectivity, SAR follow-up, selectivity assay for pPAFAH inhibitor project, biochemical, gel-based, FP-Rh fluorescence, complex proteome, SAR compounds (AID 588774); conditions: gel-based competitive ABPP, at 10 µM;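 as to inhibition: 0% = DMSO-only band intensity and 100% = blank gel background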
[2] = test system: ABHD3; assay: as above; conditions: gel-based competitive ABPP, stronger effect = higher value
[3] = target: ABHD4 (UniProt Q8VD66); assay: as above; conditions: gel-based competitive ABPP, stronger effect = higher value
ABHD4, sequence (Q8VD66 whole entry, looked up): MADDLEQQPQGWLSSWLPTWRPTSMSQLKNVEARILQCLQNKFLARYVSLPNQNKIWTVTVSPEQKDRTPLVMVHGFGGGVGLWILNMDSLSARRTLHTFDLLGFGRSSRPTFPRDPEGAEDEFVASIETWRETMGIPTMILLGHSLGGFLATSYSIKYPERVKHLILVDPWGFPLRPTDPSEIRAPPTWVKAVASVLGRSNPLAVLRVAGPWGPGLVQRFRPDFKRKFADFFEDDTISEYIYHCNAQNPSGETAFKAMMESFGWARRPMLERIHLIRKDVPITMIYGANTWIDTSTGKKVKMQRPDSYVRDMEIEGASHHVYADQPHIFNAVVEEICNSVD

[4] = test system: ABHD6; assay: as above; conditions: gel-based competitive ABPP, stronger effect = higher value
[5] = test system: FAAH; assay: as above; conditions: gel-based competitive ABPP, stronger effect = higher value
[6] = test system: LYPLA1; assay: as above; conditions: gel-based competitive ABPP, stronger effect = higher value
[7] = test system: LYPLA2; assay: as above; conditions: gel-based competitive ABPP, stronger effect = higher value
[8] = test system: MW 30 kDa; assay: as above; conditions: gel-based competitive ABPP, at 1 µM, stronger effect = higher value
[9] = test system: MW 32 kDa; assay: as above; conditions: gel-based competitive ABPP, at 1 µM, stronger effect = higher value
[10] = target: Monoglyceride lipase (Mus musculus) (UniProt O35678); assay: as above; conditions: gel-based competitive ABPP, MAGL, stronger effect = higher value
Monoglyceride lipase (Mus musculus), sequence (O35678 whole entry, looked up): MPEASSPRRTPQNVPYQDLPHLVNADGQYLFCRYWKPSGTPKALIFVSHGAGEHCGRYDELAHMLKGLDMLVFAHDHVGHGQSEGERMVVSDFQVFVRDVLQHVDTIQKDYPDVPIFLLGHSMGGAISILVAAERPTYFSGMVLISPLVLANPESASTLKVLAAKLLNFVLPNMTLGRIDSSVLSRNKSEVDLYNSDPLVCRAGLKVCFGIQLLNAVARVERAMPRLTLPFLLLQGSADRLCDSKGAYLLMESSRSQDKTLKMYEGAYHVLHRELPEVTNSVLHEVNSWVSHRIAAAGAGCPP

[11] = target: Platelet-activating factor acetylhydrolase (Mus musculus) (UniProt Q60963); assay: as above; conditions: gel-based competitive ABPP, pPAFAH, stronger effect = higher value
Platelet-activating factor acetylhydrolase (Mus musculus), sequence (Q60963 whole entry, looked up): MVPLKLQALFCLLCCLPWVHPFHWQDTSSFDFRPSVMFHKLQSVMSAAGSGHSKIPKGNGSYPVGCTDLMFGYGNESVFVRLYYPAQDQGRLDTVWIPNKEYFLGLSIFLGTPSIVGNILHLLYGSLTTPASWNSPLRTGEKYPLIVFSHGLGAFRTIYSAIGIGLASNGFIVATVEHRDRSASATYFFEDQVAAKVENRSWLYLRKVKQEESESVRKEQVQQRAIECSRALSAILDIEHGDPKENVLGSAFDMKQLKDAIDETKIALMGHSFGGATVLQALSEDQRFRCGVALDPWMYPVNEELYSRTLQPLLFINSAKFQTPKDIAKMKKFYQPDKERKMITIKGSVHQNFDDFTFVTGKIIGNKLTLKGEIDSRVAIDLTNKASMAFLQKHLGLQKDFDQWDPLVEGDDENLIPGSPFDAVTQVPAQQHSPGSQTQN

[12] = test system: pPAFAH; assay: as above; conditions: gel-based competitive ABPP, anti-targets inhibited, at 10 µM

| SMILES | anti-target count ([1]; ABHD3, anti-targets inhibited) | anti-target count ([1]; ABHD4, anti-targets inhibited) | anti-target count ([1]; ABHD6, anti-targets inhibited) | anti-target count ([1]; FAAH, anti-targets inhibited) | anti-target count ([1]; LYPLA1, anti-targets inhibited) | anti-target count ([1]; LYPLA2, anti-targets inhibited) | anti-target count ([1]; MAGL, anti-targets inhibited) | inhibition ([2]; at 10 µM) | inhibition ([2]; inhibition, at 1 µM) | inhibition ([3]; at 10 µM) | inhibition ([3]; inhibition, at 1 µM) | inhibition ([4]; at 10 µM) | inhibition ([4]; inhibition, at 1 µM) | inhibition ([5]; at 10 µM) | inhibition ([5]; inhibition, at 0.1 µM) | inhibition ([5]; inhibition, at 1 µM) | inhibition ([6]; at 10 µM) | inhibition ([6]; inhibition, at 1 µM) | inhibition ([7]; at 10 µM) | inhibition ([7]; inhibition, at 1 µM) | other results |
| --- | --- | --- | --- | --- | --- | --- | --- | --- | --- | --- | --- | --- | --- | --- | --- | --- | --- | --- | --- | --- | --- |
| COc1ccc(-c2cnn(C(=O)N3CCN(c4cc(C)nc5ccccc45)CC3)n2)cc1 | 8 | 8 | 8 | 8 | 8 | 8 | 8 | 100% (inactive) | 86% | 100% (inactive) | 86% | 70% (inactive) | 58% | 86% | 60% | 83% | 92% (inactive) | 74% | 95% (inactive) | 56% | inhibition ([4]; inhibition, at 0.1 µM): 12%; inhibition ([6]; inhibition, at 0.1 µM): 4%; inhibition [8]: 50%; inhibition [9]: 52%; inhibition ([10]; at 10 µM): 45% (inactive); inhibition ([10]; inhibition, at 1 µM): 35%; inhibition ([11]; at 10 µM): 96%; inhibition ([11]; inhibition, at 0.1 µM): 85%; inhibition ([11]; inhibition, at 1 µM): 88%; anti-target count [12]: 8 |
| Cc1cc(N2CCN(C(=O)n3ncc(-c4ccccc4)n3)CC2)c2ccccc2n1 | 9 | 9 | 9 | 9 | 9 | 9 | 9 | 100% (inactive) | 85% | 100% (inactive) | 85% | 71% (inactive) | 54% | 83% | 63% | 82% | 96% (inactive) | 86% | 99% (inactive) | 55% | inhibition [8]: 51%; inhibition [9]: 43%; inhibition ([10]; at 10 µM): 58% (inactive); inhibition ([10]; inhibition, at 1 µM): 36%; inhibition ([11]; at 10 µM): 99%; inhibition ([11]; inhibition, at 0.1 µM): 99%; inhibition ([11]; inhibition, at 1 µM): 99%; anti-target count [12]: 9 |
